Ends that are not written are not given here.
How the values were obtained:
A. baumannii ATCC 17978 = assay: microbe, parasite or virus in culture; conditions: ATCC 17978, 20 h
Outline: (§1)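 Peptides tested 0.25–128 μg/mL (2-fold dilutions, TFA/BSA carrier) against 1 × 10⁵ CFU/mL inoculum in CAMHB, duplicates.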

A. baumannii ATCC 19606 = assay: microbe, parasite or virus in culture; conditions: ATCC 19606, 20 h
Outline: as §1

E. cloacae ATCC 13047 = assay: microbe, parasite or virus in culture; conditions: ATCC 13047, 20 h
Outline: as §1

E. cloacae ATCC 35549 = assay: microbe, parasite or virus in culture; conditions: ATCC 35549, 20 h
Outline: as §1

E. coli ATCC 35218 = assay: microbe, parasite or virus in culture; conditions: E. coli 35218; Week 2 (12/14/2023)
Outline: as §1

E. coli ATCC 43888 = assay: microbe, parasite or virus in culture; conditions: ATCC 43888, 20 h
Outline: as §1

E. faecium ATCC 19434 = assay: microbe, parasite or virus in culture; conditions: ATCC 19434, 20 h
Outline: as §1

E. faecium ATCC 49224 = assay: microbe, parasite or virus in culture; conditions: ATCC 49224, 20 h
Outline: as §1

K. pneumoniae ATCC 13883 = assay: microbe, parasite or virus in culture; conditions: ATCC 13883, 20 h
Outline: as §1

[1] = system: K. pneumoniae ATCC 700603; assay: microbe, parasite or virus in culture; conditions: K. pneumoniae 700603; Week 2 (12/14/2023)
Outline: as §1

P. aeruginosa ATCC 27853 = assay: microbe, parasite or virus in culture; conditions: ATCC 27853, 20 h
Outline: as §1

P. aeruginosa MRSN 5519 = assay: microbe, parasite or virus in culture; conditions: MRSN 5519, 20 h
Outline: as §1

S. aureus ATCC 25923 = assay: microbe, parasite or virus in culture; conditions: ATCC 25923, 20 h
Outline: as §1

S. aureus ATCC 43300 = assay: microbe, parasite or virus in culture; conditions: S. aureus 43300; Week 2 (12/14/2023)
Outline: as §1

P. aeruginosa PA01 = assay: microbe, parasite or virus in culture; type: cell-based; conditions: P. aeruginosa 15692 (PAO1); Week 2 (12/14/2023)
Protocol: Antimicrobial susceptibility testing of the 20 synthesized peptides against 17 bacterial strains of clinical relevance in the ESKAPEE panel was conducted using minimum inhibitory concentration (MIC) assays following the broth microdilution method outlined by Parker et al.[91]. The ESKAPEE panel is comprised of fourteen American Type Culture Collection (ATCC) strains and three Multidrug Resistant Organism Repository and Surveillance Network (MRSN) bacterial strains. These strains represent at least one drug-susceptible strain and one drug-resistant strain for each bacterium to assess drug efficacy across various resistance mechanisms. This panel is comprised of the following bacterial species and strains: E. faecium (ATCC 19434, ATCC 49224), S. aureus (ATCC 25923, ATCC 43300), K. pneumoniae (ATCC 700603, ATCC 13883, MRSN 1320), A. baumannii (ATCC 17978, ATCC 19606, MRSN 959), P. aeruginosa (ATCC 15692, ATCC 27853, MRSN 5519), E. cloacae (ATCC 13047, ATCC 35549), and E. coli (ATCC 35218, ATCC 43888). Bacteria were grown in cation-adjusted Mueller-Hinton broth (CAMHB) to achieve a final inoculum of 1 × 10⁵ CFU/mL. CAMHB is selected for its batch-to-batch reproducibility, low levels of antimicrobial inhibitors, and ability to support the growth of most bacterial pathogens.
Briefly, lyophilized peptides were dissolved in 0.2% TFA + 0.4% BSA in water to 2.56 mg/mL, ultrasonicated for 20 min, diluted 10-fold into CAMHB, and then serially diluted 2-fold in 0.02% TFA + 0.04% BSA in CAMHB and assayed at a concentration of 0.25 to 128 μg/mL. Assays were set up using the Tecan Freedom EVO liquid handling robot and software (Tecan, Switzerland) with 50 μL of bacterial inoculum and 50 μL of peptide transferred into round-bottom 96-well microtiter plates. Each plate assay was performed in duplicate and incubated at 37 °C for 20 h without agitation. Bacterial growth was assessed using the BIOMIC V3 Image Analysis system (Giles Scientific, USA) and the MIC values were determined visually according to the Clinical and Laboratory Standards Institute (CLSI) guidelines.

P. aeruginosa PA01 (Si) = assay: microbe, parasite or virus in culture; type: cell-based; conditions: Si
Text: Supplement 41522_2025_837_MOESM13_ESM.xlsx, sheet "Table_S13_ESKAPEE-MIC" | column: Bacterial MIC (µg/mL)

K. pneumoniae 4640 = conditions: 4640, 20 h
A. baumannii 5075 = conditions: Week 2 (12/14/2023)
[2] = parameters: method as in Biomatik (vendor); conditions: 1.0 mg peptide in 1.0 ml solvent; peptides synthesized by Biomatik; ref Biomatik (vendor); cited from earlier work

Sequence | Bacterial MIC (A. baumannii ATCC 17978) [µg/mL] | Bacterial MIC (A. baumannii ATCC 19606) [µg/mL] | Bacterial MIC (E. cloacae ATCC 13047) [µg/mL] | Bacterial MIC (E. cloacae ATCC 35549) [µg/mL] | Bacterial MIC (E. coli ATCC 35218) [µg/mL] | Bacterial MIC (E. coli ATCC 43888) [µg/mL] | Bacterial MIC (E. faecium ATCC 19434) [µg/mL] | Bacterial MIC (E. faecium ATCC 49224) [µg/mL] | Bacterial MIC (K. pneumoniae ATCC 13883) [µg/mL] | Bacterial MIC [1] [µg/mL] | Bacterial MIC (P. aeruginosa ATCC 27853) [µg/mL] | Bacterial MIC (P. aeruginosa MRSN 5519) [µg/mL] | Bacterial MIC (S. aureus ATCC 25923) [µg/mL] | Bacterial MIC (S. aureus ATCC 43300) [µg/mL] | Bacterial MIC (P. aeruginosa PA01) [µg/mL] | Bacterial MIC (P. aeruginosa PA01 (Si)) [µg/mL] | Bacterial MIC (K. pneumoniae 4640) [µg/mL] | Bacterial MIC (A. baumannii 5075) [µg/mL] | Suggest solvent (solubility) [2]
DVGTQGLSPLR [PrAd-Eb22] | >128.000 | >128.000 | >128.000 | >128.000 | >128.000 | >128.000 | >128.000 | >128.000 | >128.000 | >128.000 | >128.000 | >128.000 | >128.000 | >128.000 | >128.000 | >128.000 | >128.000 | >128.000 | 1.0mg peptide soluble in 1.0ml H2O
KEGCKEIKGP [TrPr-Eb20] | >128.000 | >128.000 | >128.000 | >128.000 | >128.000 | >128.000 | >128.000 | >128.000 | >128.000 | >128.000 | >128.000 | >128.000 | >128.000 | >128.000 | >128.000 | >128.000 | >128.000 | >128.000 | 1.0mg peptide soluble in 1.0ml H2O
KRAGYARMIR [PrAd-Eb18] | >128.000 | >128.000 | >128.000 | >128.000 | >128.000 | >128.000 | >128.000 | >128.000 | >128.000 | >128.000 | >128.000 | >128.000 | >128.000 | >128.000 | >128.000 | >128.000 | >128.000 | >128.000 | 1.0mg peptide soluble in 1.0ml H2O
NANGASNANGASYANGASN [TrPr-Pc34] | >128.000 | >128.000 | >128.000 | >128.000 | >128.000 | >128.000 | >128.000 | >128.000 | >128.000 | >128.000 | >128.000 | >128.000 | >128.000 | >128.000 | >128.000 | >128.000 | >128.000 | >128.000 | 1.0mg peptide soluble in 1.0ml H2O
RVPPGFSPFR [PrAd-Eb28] | >128.000 | >128.000 | >128.000 | >128.000 | >128.000 | >128.000 | >128.000 | >128.000 | >128.000 | >128.000 | >128.000 | >128.000 | >128.000 | >128.000 | >128.000 | >128.000 | >128.000 | >128.000 | 1.0mg peptide soluble in 1.0ml H2O

Reference: PMC12635268, “Novel antimicrobial peptides and peptide-microbiome crosstalk in Appalachian salamander skin” (NPJ Biofilms and Microbiomes, 2025)
